# System: T1, L-glutaminase (Aspergillus tamarii AUMC 10198)
# T1 construct: gene gtaA; approx. 62 kDa by SDS-PAGE, single band
# Test: Nesslerization ammonia assay, […] nm; Lineweaver-Burk plot
# Format: biochemical
# Conditions: standard assay conditions (0.1 M citrate-phosphate pH 7, 30 °C, 30 min as described for the crude enzyme); 0.2-2.0 mg/ml L-glutamine; apparent Km
compound,measurement,value
NC(=O)CC[C@H](N)C(=O)O [L-glutamine],Km,0.28 mg/mL
